Measurements taken from the supplement of paper PMC10307832.

Assays:
Experiment in all cases: relative viability (nuclei count vs DMSO), 5 days (fraction); higher = more cells survive
[1] = compound: COC1=CC=C(C=C1)COC2=C(C=C(C=C2)CC3=CN=C(N=C3N)N)OC [GW-2580] + COc1cc2c(Oc3ccc(NC(=O)C4(C(=O)Nc5ccc(F)cc5)CC4)cc3F)ccnc2cc1OCCCN1CCOCC1 [Foretinib] (partner 0.25 µM)
How it was run: (§1)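 One day after seeding in 1536-well plates, lung cancer cell lines were dosed by pin tool. Dosing was either single-drug or a fixed anchor-drug dose plus five library-drug doses (not always all listed) in √10 steps. After 5 days, nuclei were stained in one fix-and-stain step and counted on 4× images, and relative viability is the nuclei count of treated wells over that of vehicle wells, given as the median of duplicate plates.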

[2] = compound: COC1=CC=C(C=C1)COC2=C(C=C(C=C2)CC3=CN=C(N=C3N)N)OC [GW-2580] + CS(=O)(=O)CCNCc1ccc(-c2ccc3ncnc(Nc4ccc(OCc5cccc(F)c5)c(Cl)c4)c3c2)o1 [Lapatinib] (partner 2 µM)
How it was run: as §1

[3] = compound: COC1=CC=C(C=C1)COC2=C(C=C(C=C2)CC3=CN=C(N=C3N)N)OC [GW-2580] + C[C@]1(O)C[C@@H](c2nc(-c3ccc4ccc(-c5ccccc5)nc4c3)c3c(N)nccn32)C1 [Linsitinib] (partner 1 µM)
How it was run: as §1

[4] = compound: COC1=CC=C(C=C1)COC2=C(C=C(C=C2)CC3=CN=C(N=C3N)N)OC [GW-2580] + Cc1cc(Nc2cc(N3CCN(C)CC3)nc(Sc3ccc(NC(=O)C4CC4)cc3)n2)n[nH]1 [Tozasertib] (partner 0.1 µM)
How it was run: as §1

[5] = compound: COC1=CC=C(C=C1)COC2=C(C=C(C=C2)CC3=CN=C(N=C3N)N)OC [GW-2580] + O=C(c1cc(Cc2n[nH]c(=O)c3ccccc23)ccc1F)N1CCN(C(=O)C2CC2)CC1 [Olaparib] (partner 8 µM)
How it was run: as §1

Row | Cell Line | relative viability ([1]; first compound 0.08 µM) | relative viability ([1]; first compound 0.8 µM) | relative viability ([1]; first compound 2.53 µM) | relative viability ([1]; first compound 8 µM) | relative viability ([2]; first compound 0.08 µM) | relative viability ([2]; first compound 0.8 µM) | relative viability ([2]; first compound 8 µM) | relative viability ([3]; first compound 0.08 µM) | relative viability ([3]; first compound 0.8 µM) | relative viability ([3]; first compound 2.53 µM) | relative viability ([3]; first compound 8 µM) | relative viability ([4]; first compound 0.08 µM) | relative viability ([4]; first compound 0.8 µM) | relative viability ([4]; first compound 2.53 µM) | relative viability ([4]; first compound 8 µM) | relative viability ([5]; first compound 0.08 µM) | relative viability ([5]; first compound 0.8 µM) | relative viability ([5]; first compound 2.53 µM) | relative viability ([5]; first compound 8 µM) | relative viability ([2]; first compound 2.53 µM)
1 | ABC-1 | 1.09 | 1.16 | 0.931 | 0.86 | 1.42 | 1.03 | 1.18 | 0.791 | 0.816 | 0.883 | 0.718 | 0.157 | 0.147 | 0.179 | 0.193 | 0.774 | 0.634 | 1.43 | 0.824 | 
2 | NCI-H2347 | 0.739 | 0.885 | 0.586 | 1.17 | 1.02 | 1.03 | 0.936 | 0.996 | 0.864 | 0.954 | 0.884 | 0.538 | 0.745 | 0.508 | 0.401 | 0.538 | 0.616 | 0.54 | 0.595 | 0.805
3 | NCI-H1993 | 0.921 | 0.765 | 0.686 | 0.746 | 0.775 | 0.904 | 0.907 | 0.757 | 0.735 |  | 0.714 | 0.618 | 0.526 | 0.574 | 0.549 | 0.985 | 1.07 | 1.06 | 1.04 | 
4 | NCI-H322M | 1.02 | 1.06 | 0.924 | 0.979 | 0.547 | 0.627 | 0.573 | 1.01 | 0.958 | 0.857 | 1.05 | 0.491 | 0.553 | 0.476 | 0.593 | 0.76 | 0.956 | 0.753 | 0.626 | 0.592
5 | NCI-H838 | 1.15 | 1.14 | 0.997 | 1.03 | 0.994 | 1.11 | 0.987 | 1.14 | 1.19 | 1.01 | 1.06 | 0.291 | 0.341 | 0.295 | 0.248 | 0.906 | 0.938 | 0.838 | 0.94 | 0.789
6 | HARA | 1.06 | 0.849 | 1.03 | 0.676 | 0.757 | 0.902 | 0.63 | 1.09 | 1.06 | 1.08 | 0.845 | 0.111 | 0.127 | 0.0978 | 0.0792 | 0.624 | 1.19 | 0.895 | 0.726 | 0.535
7 | NCI-H2087 | 1.21 | 1.25 | 1.2 | 0.937 | 1.43 | 1.18 | 0.991 | 1.08 | 0.935 | 0.924 | 0.818 | 0.242 | 0.263 | 0.249 | 0.212 | 0.668 | 0.934 | 0.608 | 0.542 | 1.04
8 | NCI-H1437 | 1.38 | 1.28 | 1.14 | 0.91 | 0.82 | 0.965 | 0.781 | 1.08 | 1.3 | 0.942 | 0.728 | 0.412 | 0.433 | 0.405 | 0.291 | 0.672 | 0.662 | 0.631 | 0.602 | 0.723
9 | NCI-H650 | 1.06 | 1.05 | 0.932 | 0.94 | 0.93 | 1.09 | 0.864 | 0.94 | 1.02 | 0.547 | 1.17 | 0.721 | 0.743 | 0.669 | 0.589 | 0.373 | 0.379 | 0.364 | 0.472 | 0.801
10 | COR-L23 | 1.12 | 1.15 | 1.09 | 0.882 | 1.26 | 1.22 | 1.06 | 0.987 | 1.2 | 0.946 | 1.02 | 0.209 | 0.202 | 0.179 | 0.185 | 0.422 | 0.375 | 0.294 | 0.406 | 1.06
11 | COR-L 105 | 1.09 | 1.19 | 1.05 | 0.993 | 0.429 | 0.393 | 0.351 | 1.03 | 0.807 | 0.929 | 1.01 | 0.317 | 0.311 | 0.352 | 0.387 | 0.658 | 0.633 | 0.909 | 0.68 | 0.336
12 | LK-2 | 1.62 | 1.45 | 1.05 | 1.2 | 0.972 | 0.952 | 0.735 | 0.558 | 0.573 | 0.23 | 0.534 | 0.173 | 0.166 | 0.192 | 0.171 | 0.625 | 0.732 | 0.612 | 0.775 | 0.513
13 | 201T | 1.09 | 1.1 | 1.24 | 1.13 | 1.09 | 1.11 | 1.06 | 1.06 | 1.14 | 1.14 | 1.06 | 0.998 | 0.935 | 0.96 | 0.82 | 0.896 | 0.73 | 0.887 | 0.794 | 0.983
14 | NCI-H596 | 0.795 | 0.88 | 0.957 | 0.823 | 1.25 | 1.2 | 1.2 | 1.22 | 1.08 | 1.07 | 1 | 0.956 | 1.02 | 0.891 | 0.919 | 0.8 | 0.746 | 0.715 | 0.651 | 0.996
15 | H3255 | 0.859 | 0.835 | 0.742 | 0.829 | 0.216 | 0.265 | 0.249 | 0.98 | 1.03 | 1.08 | 0.796 | 0.619 | 0.217 | 0.664 | 0.47 | 0.618 | 0.607 | 0.566 | 0.508 | 0.234
16 | NCI-H647 | 1.25 | 1.16 | 1.13 | 1.37 | 1.22 | 1.29 | 1.15 | 1.39 | 1.39 | 1.09 | 1.33 | 0.358 | 0.218 | 0.418 | 0.189 | 0.776 | 0.667 | 0.444 | 0.71 | 0.926
17 | NCI-H2023 | 0.735 | 1.02 | 0.841 | 0.779 | 0.899 | 0.964 | 0.797 | 0.643 | 0.864 | 0.654 | 0.67 | 0.475 | 0.431 | 0.522 | 0.342 | 0.541 | 0.589 | 0.457 | 0.511 | 0.633
18 | NCI-H23 | 1.23 | 1.18 | 0.887 | 0.907 | 1.03 | 1.09 | 1.25 | 0.728 | 0.626 | 0.524 | 0.517 | 0.418 | 0.401 | 0.392 | 0.31 | 0.329 | 0.329 | 0.321 | 0.273 | 0.936
19 | NCI-H1944 | 0.945 | 0.886 | 0.966 | 0.631 | 0.843 | 0.98 | 0.897 | 1.32 | 1.4 | 1.27 | 1.07 | 0.267 | 0.256 | 0.253 | 0.205 | 0.427 | 0.432 | 0.378 | 0.399 | 0.82
20 | NCI-H1793 | 0.694 | 0.758 | 0.584 | 0.58 | 0.803 | 0.74 | 0.459 | 0.93 | 0.934 | 0.814 | 0.824 | 0.379 | 0.3 | 0.281 | 0.307 | 0.892 | 1.02 | 0.822 | 0.804 | 0.571
21 | NCI-H520 | 0.804 | 0.627 | 0.783 | 0.762 | 0.973 | 0.926 | 0.931 | 1.03 | 1.18 | 1.16 | 0.985 | 0.421 | 0.459 | 0.443 | 0.46 | 0.3 | 0.416 | 0.337 | 0.342 | 0.849
22 | NCI-H460 | 1.02 | 1.09 | 0.987 | 0.924 | 1.86 | 1.31 | 1.01 | 1.04 | 1.17 | 0.604 | 0.795 | 0.349 | 0.394 | 0.422 | 0.33 | 0.379 | 0.508 | 0.516 | 0.353 | 0.689
23 | EKVX | 0.971 | 1.11 | 0.726 | 0.779 | 0.181 | 0.236 | 0.18 | 0.983 | 1.18 | 0.884 | 1.04 | 0.553 | 0.428 | 0.313 | 0.321 | 0.905 | 0.986 | 0.812 | 0.89 | 0.189
24 | NCI-H358 | 0.761 | 0.79 | 0.679 | 0.557 | 0.499 | 0.484 | 0.409 | 0.888 | 0.849 | 0.707 | 0.684 | 0.103 | 0.117 | 0.11 | 0.104 | 0.652 | 0.658 | 0.635 | 0.621 | 0.409
25 | EPLC-272H | 0.73 | 0.766 |  | 0.605 | 1.13 | 1.04 | 0.916 | 1.05 | 1.38 | 1.24 | 1.14 | 0.321 | 0.266 |  | 0.214 | 0.819 | 0.861 | 0.755 | 0.605 | 0.886
26 | NCI-H1395 | 1.08 | 0.934 | 1 | 0.923 | 0.994 | 0.95 | 0.912 | 1.07 | 1.08 | 0.97 | 0.931 | 0.829 | 0.805 | 0.658 | 0.734 | 0.426 | 0.427 | 0.489 | 0.425 | 0.88
27 | NCI-H2126 | 1.32 | 1.13 | 0.925 | 1.28 | 0.767 | 0.835 | 0.833 | 0.739 | 0.731 | 0.653 | 0.743 | 0.889 | 0.933 | 0.822 | 0.794 | 1.02 | 0.942 | 0.793 | 0.851 | 0.679
